Assay results: patent US8575175B2, “Therapeutic agent for chronic renal failure” (Toray Industries, Inc., priority 2008, dated 2013)
Structures can show the parent of a compound that is named as a salt.

Assays:
[1] = system: ADP-induced rat platelet aggregation; test: Platelet aggregation inhibition action in rat (ADP-induced aggregation after oral administration); format: in vivo; conditions: stimulation with 10 μM ADP; oral: sodium salt of Compound 1 30 mg/kg (blood at 1 hour), beraprost sodium 0.3 mg/kg (0.5 hour); n=6
Protocol: To determine the dose with which the PGI2-receptor agonistic activity is equivalent between the sodium salt of Compound 1 and beraprost sodium, the platelet aggregation inhibition action which is the major pharmacological action of PGI2-receptor agonists was used as an index for comparison. The sodium salt of Compound 1 (30 mg/kg) or beraprost sodium (0.3 mg/kg) was orally administered to rats fasted for 1 day, and blood was collected therefrom at the time when the plasma level of each compound became maximum, that is, 1 hour after the administration of the sodium salt of Compound 1 (Non-patent Document: J Pharmacol Exp Ther 322:1181-1188 2007) or 0.5 hour after the administration of beraprost sodium (Non-patent Document: Xenobiotic Metabolism and Disposition 6:713-725 1989), followed by measuring ADP-induced rat platelet aggregation. In the both groups, the experiment was carried out with n=6. The sodium salt of Compound 1, which was one of the PGI2-receptor agonists used herein, was synthesized by treating a carboxylic acid with sodium hydroxide, which carboxylic acid was synthesized according to the method described in Patent Document 4.

[2] = system: rats suffering from chronic renal failure; test: Pharmacological effect in rats suffering from chronic renal failure: renal function, hematocrit, hemoglobin; format: in vivo, WKY rats; conditions: for Hematocrit value / Hemoglobin content: oral twice a day from week 2
Protocol: Rabbit anti-rat glomerular basement membrane antiserum (14-fold diluted, 3 mL/kg) was intravenously injected to WKY rats of 8 weeks old, to induce glomerulonephritis. […] Further, creatinine clearance, which is used as an alternative to glomerular filtration rate (GFR), was 2.63±0.07 mL/min. (N=3) in the normal group, and 1.22±0.04 mL/min. (N=21) in the nephritis-induced group. That is, creatinine clearance in the nephritis-induced group decreased to not more than 50% with respect to that of the normal group, and therefore it was confirmed that the nephritis-induced group developed chronic renal failure whose primary disease was glomerulonephritis. Thus, the time of establishment of the chronic renal failure was defined as 2 weeks after the induction of nephritis. […] This stage was the phase in which introduction of dialysis is considered in human, and corresponded to the most serious phase in chronic renal failure in the conservative stage.
Thus, 2 weeks after the induction of nephritis, based on the serum creatinine value, the rats suffering from chronic renal failure were grouped into the normal group (with neither induction of nephritis nor administration, n=4), the control group (administration of only a vehicle, n=7), the group to be treated with the sodium salt of Compound 1 (administration of 30 mg/kg twice a day, n=7) and the group to be treated with beraprost sodium (administration of 0.3 mg/kg twice a day, n=7), after which oral administration of the drugs were begun, followed by daily administration thereof. As the vehicle for the drugs, 0.25% sodium carboxymethylcellulose solution was used.
(§1) From 2 weeks after the induction of nephritis when the chronic renal failure was established, until 6 weeks after the induction of nephritis, urine collection and blood collection were carried out as appropriate, and the serum creatinine value, BUN and creatinine clearance were measured for each group to evaluate renal function. Further, the hematocrit, the hemoglobin content, and the SOD activity of the renal tissue, which are closely linked to the diseased state of chronic renal failure, were measured, and the expression level of mRNA of an organic anion transporter OAT-3 was quantified. The SOD activity was measured with the SOD assay kit WST (Dojindo Laboratories), and the expression level of mRNA of OAT-3 was quantified using LightCycler FastStart DNA Master SYBR Green I (Roche).
Six weeks after the induction of nephritis when the chronic renal failure in the conservative stage progressed to a serious phase in the control group, a statistical analysis was carried out. In terms of statistical difference, homoscedasticity was tested by the Bartlett's test between the control group and the respective drug-administered groups. In homoscedastic cases, the parametric Dunnett's test was carried out between the respective drug-administered groups and the control group, while in heteroscedastic cases, the nonparametric Dunnett's test was carried out therebetween, using a significance level of less than 5%.

[3] = system: SOD; test: SOD activity in the renal tissue of rats suffering from chronic renal failure; format: in vivo, WKY rats; conditions: 6 weeks after induction of nephritis, oral twice a day from week 2, mean ± SE, n=7
Protocol: (§2) Rabbit anti-rat glomerular basement membrane antiserum (14-fold diluted, 3 mL/kg) was intravenously injected to WKY rats of 8 weeks old, to induce glomerulonephritis. […] Further, creatinine clearance, which is used as an alternative to glomerular filtration rate (GFR), was 2.63±0.07 mL/min. (N=3) in the normal group, and 1.22±0.04 mL/min. (N=21) in the nephritis-induced group. That is, creatinine clearance in the nephritis-induced group decreased to not more than 50% with respect to that of the normal group, and therefore it was confirmed that the nephritis-induced group developed chronic renal failure whose primary disease was glomerulonephritis. Thus, the time of establishment of the chronic renal failure was defined as 2 weeks after the induction of nephritis. […]
as §1, with “The SOD activity was measured with the SOD assay kit WST (Dojindo Laboratories), and the expression level of mRNA of OAT-3 was quantified using LightCycler FastStart DNA Master SYBR Green I (Roche).” left out

[4] = system: OAT-3; test: Expression level of mRNA of OAT-3 in the renal cortex of rats suffering from chronic renal failure; format: in vivo, WKY rats; conditions: 6 weeks after induction of nephritis, oral twice a day from week 2, mean ± SE, n=7, normal group 1.00 ± 0.06
Protocol: as §2
as §1, with “The SOD activity was measured with the SOD assay kit WST (Dojindo Laboratories), and the expression level of mRNA of OAT-3 was quantified using LightCycler FastStart DNA Master SYBR Green I (Roche).” left out

[5] = after oral administration to rats; from cited literature; cited from earlier work
[6] = Plasma level of Compound 1 and bioavailability after administration of Compound 1 and Compound 2 to rats; format: in vivo; conditions: rat, 5 mg/kg oral vs Compound 1 1 mg/kg intravenous, Compound 1 measured in plasma, corrected for molecular weight, mean ± SE, n=3
Protocol: Compound 1 or Compound 2 was orally administered to rats in an amount of 5 mg/kg, and Compound 1 was intravenously administered in an amount of 1 mg/kg, after which the concentration of Compound 1 in plasma was measured. The experiment was carried out with n=3 in each of the both groups. […] Thus, it was shown that Compound 2 can be used in a manner similar to Compound 1. Compound 1 and Compound 2 used in this experiment was synthesized in accordance with the method described in Patent Document 4.

[7] = 6 weeks after induction of nephritis, oral twice a day from week 2 (Compound 1 Na salt 30 mg/kg, beraprost sodium 0.3 mg/kg), mean ± SE, n=7
[8] = 6 weeks after induction of nephritis, mean ± SE, n=7
[9] = until 6 weeks after the induction of nephritis, 30 mg/kg oral twice a day

Q: With `CC#CCC(C)[C@H](O)/C=C/[C@@H]1[C@H]2c3cccc(CCCC(=O)O)c3O[C@H]2C[C@H]1O` (mixture of isomers) [Beraprost sodium, reference compound] as the molecule, how does the “rate of suppression of rat platelet aggregation” value [1] read?
A: Its value is 64.2±8.3%.

Q: And the BUN [2, 7]?
A: Its BUN is 42.1 ± 6.41 mg/dL.

Q: What about the Creatinine clearance [2, 7] of the same molecule?
A: Its Creatinine clearance is 0.77 ± 0.13 mL/min.

Q: What about the Serum creatinine value [2, 7] of the same molecule?
A: Its Serum creatinine value is 0.85 ± 0.12 mg/dL.

Q: What about the Hematocrit value [2, 8] of the same molecule?
A: Its Hematocrit value is 33.9 ± 0.97%.

Q: And the Hemoglobin content [2, 8]?
A: Its Hemoglobin content is 12.3 ± 0.28 g/dL.

Q: What about the “SOD activity (%, taking the activity in the normal group as 100%)” value [3] of the same molecule?
A: The value was 67.9 ± 5.45%.

Q: What about the “Expression level of mRNA of OAT-3 (ratio to that of GAPD)” value [4] of the same molecule?
A: Its value is 0.24 ± 0.04.

Q: And the “time when the plasma level became maximum” value [5]?
A: The value was 0.5 h.

Q: With `CC(C)N(CCCCOCC(=O)O)c1cnc(-c2ccccc2)c(-c2ccccc2)n1` [Compound 1] as the molecule, how does the bioavailability [6] read?
A: The bioavailability was 43.3 ± 2.6%.

Q: With `CC(C)N(CCCCOCC(=O)O)c1cnc(-c2ccccc2)c(-c2ccccc2)n1` [Sodium salt of Compound 1] as the molecule, how does the “rate of suppression of rat platelet aggregation” value [1] read?
A: The value was 47.0±7.9%.

Q: And the Creatinine clearance ([2]; 2 weeks after induction of nephritis, at the beginning of the administration (baseline of the treated group))?
A: Its Creatinine clearance is 1.21 ± 0.06 mL/min.

Q: What about the BUN [2, 7] of the same molecule?
A: The BUN was 26.8 ± 2.49 mg/dL.

Q: What about the Creatinine clearance [2, 7] of the same molecule?
A: Its Creatinine clearance is 1.48 ± 0.11 mL/min.

Q: And the Serum creatinine value [2, 7]?
A: The Serum creatinine value was 0.47 ± 0.04 mg/dL.

Q: What about the Creatinine clearance ([2]; 6 weeks after induction of nephritis, oral twice a day from week 2 (Compound 1 Na salt 30 mg/kg, beraprost sodium 0.3 mg/kg), mean ± SE, n=7, listed as sodium salt of Compound 1) of the same molecule?
A: Its Creatinine clearance is 1.48 ± 0.11 mL/min.

Q: What about the Hematocrit value [2, 8] of the same molecule?
A: Its Hematocrit value is 37.1 ± 0.71 %.

Q: And the Hemoglobin content [2, 8]?
A: Its Hemoglobin content is 13.7 ± 0.28 g/dL.

Q: What about the “BUN, course compared to control group (FIG. 2)” value [2, 9] of the same molecule?
A: Its value is “kept low compared to that in the control group”.

Q: What about the “creatinine clearance, course compared to control group (FIG. 3)” value [2, 9] of the same molecule?
A: Its value is “kept high compared to that in the control group”.

Q: What about the “serum creatinine value, course compared to control group (FIG. 1)” value [2, 9] of the same molecule?
A: The value was “kept low compared to that in the control group”.

Q: And the “SOD activity (%, taking the activity in the normal group as 100%)” value [3]?
A: Its value is 83.6 ± 2.52 %.

Q: What about the “Expression level of mRNA of OAT-3 (ratio to that of GAPD)” value [4] of the same molecule?
A: The value was 0.42 ± 0.05.

Q: And the “time when the plasma level became maximum” value [5]?
A: Its value is 1 h.
